This experiment concerns the target T1, CETP (Homo sapiens, UniProt P11597).
T1 construct: from tissue; host or cells: human plasma from healthy men
T1 sequence (P11597 18-493): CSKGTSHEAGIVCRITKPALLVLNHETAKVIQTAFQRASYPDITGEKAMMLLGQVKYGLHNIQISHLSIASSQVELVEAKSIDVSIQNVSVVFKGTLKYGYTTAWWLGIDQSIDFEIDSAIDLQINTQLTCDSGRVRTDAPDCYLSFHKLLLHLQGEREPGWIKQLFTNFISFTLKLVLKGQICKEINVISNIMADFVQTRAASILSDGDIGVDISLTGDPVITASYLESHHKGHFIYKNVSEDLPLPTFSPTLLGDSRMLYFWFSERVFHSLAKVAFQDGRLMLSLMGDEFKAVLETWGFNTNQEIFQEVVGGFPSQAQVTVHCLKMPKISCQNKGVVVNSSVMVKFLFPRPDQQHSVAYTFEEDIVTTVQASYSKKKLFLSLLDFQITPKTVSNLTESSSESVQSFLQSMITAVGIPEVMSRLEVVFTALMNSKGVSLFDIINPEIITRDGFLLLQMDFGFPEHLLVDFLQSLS
Put plainly: Inhibitory activity against CETP in human plasma (Roar CETP activity kit, fluorescence). The format is biochemical. The conditions noted are these: plasma from healthy men diluted 1:10 in assay buffer, 37° C., 3 hrs, fluorescence 465/535 nm; read-out: IC50, Inhibition of CETP Activity in Human Plasma. As for the experimental part: A CETP activity kit (#RB-CETP) was purchased from Roar […], Inc. A donor and an acceptor (each, 4 ul), a 10× assay buffer (177 ul), and each of dilutions of test compounds in dimethylsulfoxide (DMSO, Sigma-Aldrich) (0.01 nM˜10000 nM) were added to each well of black round-bottom 96-well plates (Corning #3792). Plasma samples from healthy men were diluted in the assay buffer (1:10=plasma:assay buffer), and added to each well. The plates were sealed with a sealing film (Sigma-Aldrich, #Z369659), and incubated in a 37° C. incubator microplate shaker (#SLST-3, Seolin Bio) for 3 hrs. After removal of the sealing film, fluorescence was read on Spectra Max Gemini EM (Molecular devices) with an excitation wavelength of 465 nm and an emission wavelength of 535 nm. Measurements were calculated according to the following formula. Calculated value=(Fluorescence Intensity with both compound and plasma−Fluorescence Intensity with compound but without plasma)/(Fluorescence Intensity with plasma but without compound−Fluorescence Intensity with neither compound nor plasma)
From the calculated value, a sigmoidal curve (y=start+(end-start)x^n/k^n+x^n) was drawn using Origin Software (OriginLab Corporation, ver. 8.0724) to obtain IC50 values.
`CCN(c1ncc(-c2cnn(C)c2)cc1CN1C(=O)O[C@H](c2cc(C(F)(F)F)cc(C(F)(F)F)c2)[C@@H]1C)C1CCCCC1` [Example 62, (4S,5R)-5-[3,5-bis(trifluoromethyl)phenyl]-4-methyl-3-({[2-(ethyl)(cyclohexyl)amino]-5-(1-methyl-1H-pyrazol-4-yl)pyridin-3-yl}methyl)-oxazolidin-2-one]: the concentration for half-maximal inhibition (IC50) (in general, the midpoint of a concentration-inhibition curve) was determined as 151 nM.

As to `CCN(c1ncc(C(F)(F)F)cc1CN1C(=O)O[C@H](c2cc(C(F)(F)F)cc(C(F)(F)F)c2)[C@@H]1C)C1CCSCC1` [Example 25, (4S,5R)-5-[3,5-bis(trifluoromethyl)phenyl]-4-methyl-3-({[2-(ethyl)(tetrahydro-2H-thiopyran-4-yl)amino]-5-(trifluoromethyl)pyridin-3-yl}methyl)-oxazolidin-2-one], the IC50 is 108 nM.

Regarding `CCN(c1ncc(-c2ccsc2C#N)cc1CN1C(=O)O[C@@H](c2cc(C(F)(F)F)cc(C(F)(F)F)c2)[C@@H]1C)C1CCCCC1` [Example 82, 3-{5-({(4S,5S)-5-[3,5-bis(trifluoromethyl)phenyl]-4-methyl-2-oxo-oxazolidin-3-yl}methyl)-6-[(cyclohexyl)(ethyl)amino]pyridin-3-yl}-thiophene-2-carbonitrile], the 50% inhibitory concentration (IC50) came out at 246 nM.

Turning to `CCN(C[C@H]1CC[C@H](CC(=O)O)CC1)c1ncc(-c2cc(C)cs2)nc1CN1C(=O)OC(c2cc(C(F)(F)F)cc(C(F)(F)F)c2)[C@@H]1C` (stereo partly shown) [Example 110], the 50% inhibitory concentration (IC50) worked out at 56.2 nM.

With `CCN(CC1CCCC1)c1ncc(-c2c(C)noc2C)nc1CN1C(=O)O[C@H](c2cc(C(F)(F)F)cc(C(F)(F)F)c2)[C@@H]1C` [Example 101, (4S,5R)-5-[3,5-bis(trifluoromethyl)phenyl]-3-({[3-(cyclopentylmethyl)(ethyl)amino]-4-methyl 6-(3,5-dimethylisoxazol-4-yl)pyrazin-3-yl}methyl)-oxazolidin-2-one], the IC50 turned out to be 3.45 nM.

For `CCN(c1ncc(-c2cc(C(F)(F)F)nn2C)cc1CN1C(=O)O[C@H](c2cc(C(F)(F)F)cc(C(F)(F)F)c2)[C@@H]1C)C1CCCCC1` [Example 60, (4S,5R)-5-[3,5-bis(trifluoromethyl)phenyl]-4-methyl-3-({[2-(ethyl)(cyclohexyl-4-yl)amino]-5-(1-methyl-1H-3-(trifluoromethyl)-pyrazol-5-yl)pyridin-3-yl}methyl)-oxazolidin-2-one], the half-maximal inhibitory concentration (IC50) came to 34.7 nM.

`CCN(c1ncccc1CN1C(=O)O[C@H](c2cc(C(F)(F)F)cc(C(F)(F)F)c2)[C@@H]1C)C1CCOCC1` [Example 52, (4S,5R)-5-[3,5-bis(trifluoromethyl)phenyl]-4-methyl-3-({[2-(ethyl)(tetrahydro-2H-pyran-4-yl)amino]-pyridin-3-yl}methyl)-oxazolidin-2-one]: the IC50 is 73.4 nM.

Consider `CCN(c1ncc(C(F)(F)F)cc1CN1C(=O)O[C@H](c2cc(C(F)(F)F)cc(C(F)(F)F)c2)[C@@H]1C)C1CCOCC1` [Example 7, (4S,5R)-5-[3,5-bis(trifluoromethyl)phenyl]-4-methyl-3-({[2-(ethyl)(tetrahydro-2H-pyran-4-yl)amino]-5-(trifluoromethyl)pyridin-3-yl}methyl)-oxazolidin-2-one], for which the half-maximal inhibitory concentration (IC50) is 6.3 nM.

Regarding `CCN(c1ncc(C(F)(F)F)cc1CN1C(=O)O[C@H](c2cc(C(F)(F)F)cc(C(F)(F)F)c2)[C@@H]1C)C1CCN(S(C)(=O)=O)CC1` [Example 32, (4S,5R)-5-[3,5-bis(trifluoromethyl)phenyl]-4-methyl-3-({[2-(ethyl)(1-methanesulfonylpiperidin-4-yl)amino]-5-trifluoromethylpyridin-3-yl}methyl)-oxazolidin-2-one], the IC50 turned out to be 410 nM.

With `CCN(c1ncc(-c2ccc(C)o2)cc1CN1C(=O)O[C@H](c2cc(C(F)(F)F)cc(C(F)(F)F)c2)[C@@H]1C)C1CCCCC1` [Example 75, (4S,5R)-5-[3,5-bis(trifluoromethyl)phenyl]-4-methyl-3-({[2-(ethyl)(cyclohexyl)amino]-5-(2-methyl-furan-5-yl)pyridin-3-yl}methyl)-oxazolidin-2-one], the half-maximal inhibitory concentration (IC50) came to 31.1 nM.

For the molecule `CCN(C[C@H]1CC[C@H](CC(=O)O)CC1)c1ncc(-c2cccnc2)nc1CN1C(=O)OC(c2cc(C(F)(F)F)cc(C(F)(F)F)c2)[C@@H]1C` (stereo partly shown) [Example 119], the half-inhibitory concentration (IC50) was 78.2 nM.

`CCN(CC1CCC(CC(=O)O)CC1)c1ncc(-c2cc(C)nn2C)nc1CN1C(=O)OC(c2cc(C(F)(F)F)cc(C(F)(F)F)c2)C1C` [Example 107, trans-4-({[3-({(4S,5S)-5-[3,5-bis(trifluoromethyl)phenyl]-4-methyl-2-oxazolidin-3-yl}methyl)-5-(1,3-dimethyl-1H-pyrazol-5-yl)pyrazin-2-yl]{[N-(ethyl)aminomethyl]cyclohexyl)}acetic acid]: the IC50 was 37 nM.

Take `CCN(c1ncc(-c2cccc(C)c2)cc1CN1C(=O)O[C@H](c2cc(C(F)(F)F)cc(C(F)(F)F)c2)[C@@H]1C)C1CCOCC1` [Example 46, (4S,5R)-5-[3,5-bis(trifluoromethyl)phenyl]-4-methyl-3-({[2-(ethyl)(tetrahydro-2H-pyran-4-yl)amino]-5-(3-methylphenyl)pyridin-3-yl}methyl)-oxazolidin-2-one]: the IC50 came to 28 nM.

In the case of `CCN(C[C@H]1CC[C@H](CC(=O)O)CC1)c1ncc(-c2c(C)noc2C)nc1CN1C(=O)OC(c2cc(C(F)(F)F)cc(C(F)(F)F)c2)[C@@H]1C` (stereo partly shown) [Example 102], the IC50 came out at 0.65 nM.

As for `CCN(c1ncc(OS(C)(=O)=O)cc1CN1C(=O)O[C@H](c2cc(C(F)(F)F)cc(C(F)(F)F)c2)[C@@H]1C)C1CCCCC1` [Example 55, 5-{[(4S,5R)-5-[3,5-bis(trifluoromethyl)phenyl]-4-methyl-2-oxo-oxazolidin-3-yl]methyl}-6-[(cyclohexyl)(ethyl)amino]-pyridin-3-yl methanesulfonate], the 50% inhibitory concentration (IC50) came to 11.1 nM.

`Cc1noc(C)c1-c1cnc(N(C)C2CCCCC2)c(CN2C(=O)O[C@H](c3cc(C(F)(F)F)cc(C(F)(F)F)c3)[C@@H]2C)c1` [Example 57, (4S,5R)-5-[3,5-bis(trifluoromethyl)phenyl]-4-methyl-3-({[2-(methyl)(cyclohexyl-4-yl)amino]-5-(3,5-dimethylisoxazol-4-yl)pyridin-3-yl}methyl)-oxazolidin-2-one]: the IC50 was determined as 16.7 nM.

Turning to `CCN(c1ncc(Br)cc1CN1C(=O)O[C@H](c2cc(C(F)(F)F)cc(C(F)(F)F)c2)[C@@H]1C)C1CCOCC1` [Example 40, (4S,5R)-5-[3,5-bis(trifluoromethyl)phenyl]-4-methyl-3-({[2-(ethyl)(tetrahydro-2H-pyran-4-yl)amino]-5-bromopyridin-3-yl}methyl)-oxazolidin-2-one], the half-maximal inhibitory concentration (IC50) amounted to 19.8 nM.

Take `C[C@H]1[C@@H](c2cc(C(F)(F)F)cc(C(F)(F)F)c2)OC(=O)N1Cc1cc(C(F)(F)F)cnc1N(CCO)C1CCOCC1` [Example 18, (4S,5R)-5-[3,5-Bis(trifluoromethyl)phenyl]-4-methyl-3-({[2-(hydroxyethyl)(tetrahydro-2H-pyran-4-yl)amino]-5-(trifluoromethyl)pyridin-3-yl}methyl)-oxazolidin-2-one]: the IC50 is 91 nM.

Regarding `CCOc1cccc(-c2cnc(N(CC)C3CCOCC3)c(CN3C(=O)O[C@H](c4cc(C(F)(F)F)cc(C(F)(F)F)c4)[C@@H]3C)c2)c1` [Example 48, (4S,5R)-5-[3,5-bis(trifluoromethyl)phenyl]-4-methyl-3-({[2-(ethyl)(tetrahydro-2H-pyran-4-yl)amino]-5-(3-ethoxyphenyl)pyridin-3-yl}methyl)-oxazolidin-2-one], the half-inhibitory concentration (IC50) came out at 133 nM.

Take `CCN(c1ncc(-c2cccn2C(=O)OC(C)(C)C)cc1CN1C(=O)O[C@@H](c2cc(C(F)(F)F)cc(C(F)(F)F)c2)[C@@H]1C)C1CCCCC1` [Example 76, t-butyl 2-{5-({(4S,5S)-5-[3,5-bis(trifluoromethyl)phenyl]-4-methyl-2-oxo-oxazolidin-3-yl}methyl)-6-[(cyclohexyl)(ethyl)amino]pyridin-3-yl}-1H-pyrrole-1-carboxylate]: the IC50 amounted to 87.4 nM.

As to `Cc1noc(C)c1-c1cnc(N2CC(C)OC(C)C2)c(CN2C(=O)O[C@@H](c3cc(C(F)(F)F)cc(C(F)(F)F)c3)[C@@H]2C)n1` (stereo partly drawn) [Example 99, (4S,5S)-5-[3,5-bis(trifluoromethyl)phenyl]-3-{[6-(3,5-dimethylisoxazol-4-yl)-3-(2,6-dimethylmorpholino)pyrazin-2-yl]methyl}-4-methyloxazolidin-2-one], the IC50 came out at 83.1 nM.

On to `CCN(c1ncc(C#N)cc1CN1C(=O)O[C@H](c2cc(C(F)(F)F)cc(C(F)(F)F)c2)[C@@H]1C)C1CCCCC1` [Example 54], for which the IC50 was found to be 19 nM.
